PMC11822212, “High-throughput screening identifies Aurora kinase B as a critical therapeutic target for Merkel cell carcinoma” (Nature Communications, 2025)
Read-outs that look alike come from different tables or passages of the source.

How the values were obtained:
MCC13 cells (VN-MCC) = assay: qHTS cell viability (CellTiter-Glo, 72 h; primary and follow-up small molecule screen); format: cell-based, human
MCC26 cells (VN-MCC) = assay: as above; format: cell-based, human
UISO cells (VN-MCC) = assay: as above; format: cell-based, human
WAGA cells (VP-MCC) = assay: as above; format: cell-based, human
MKL-1 cells (VP-MCC) = assay: as above; format: cell-based, human
MKL-2 cells (VP-MCC) = assay: as above; format: cell-based, human
HACAT cells = assay: qHTS cell viability (CellTiter-Glo, 72 h; primary screen), control cell line; format: cell-based, human
HEK293T cells = assay: as above; format: cell-based, human
NIH-3T3 cells = assay: as above; format: cell-based, mouse
CRL-7250 cells = assay: as above; format: cell-based
[1] = tested on: MCC cell lines (WAGA, MKL-1, MKL-2, MCC13, MCC26, UISO); assay: qHTS cell viability, all six MCC cell lines as a group (mean AUC, MCC.avg); format: cell-based, human
[2] = tested on: VP-MCC cell lines (WAGA, MKL-1, MKL-2); assay: qHTS cell viability, VP-MCC cell lines as a group (mean AUC, VP.MCC.avg); format: cell-based, human
[3] = tested on: VN-MCC cell lines (MCC13, MCC26, UISO); assay: qHTS cell viability, VN-MCC cell lines as a group (mean AUC, VN.MCC.avg); format: cell-based, human
[4] = tested on: control cell lines (HACAT, HEK293T, CRL-7250, NIH-3T3); assay: qHTS cell viability, control cell lines as a group (mean AUC, Control.avg); format: cell-based
[5] = tested on: six MCC cell lines and four control cell lines; assay: qHTS cell viability, all 10 cell lines screened; format: cell-based
[6] = MIPE library, 11-point DRC, sheet S2E
[7] = MIPE library, 11-point DRC, control cell line, sheet S2E

`COc1cc(C[C@@H](C)N)c(OC)cc1C.Cl` showed an MCC13_AUC (MCC13 cells (VN-MCC)) of 469.394, an MCC26_AUC (MCC26 cells (VN-MCC)) of 411.829 and a UISO_AUC (UISO cells (VN-MCC)) of 418.828. The WAGA_AUC (WAGA cells (VP-MCC)) was 120.519, the MKL1_AUC (MKL-1 cells (VP-MCC)) was 46.808 and the MKL2_AUC (MKL-2 cells (VP-MCC)) was 72.1855. It also gave an HACAT_AUC (HACAT cells) of 438.262, an HEK293T_AUC (HEK293T cells) of 304.503 and an NIH3T3_AUC (NIH-3T3 cells) of 358.481. For the same molecule, the CRL7250_AUC (CRL-7250 cells) was 239.588, the MCC_Avg_AUC [1] was 256.594 and the Control-VP-MCC [2] was 255.371. It also gave a VP-MCC_Avg_AUC [2] of 79.8375, a Control-VN-MCC [3] of -98.1417 and a VN-MCC_Avg_AUC [3] of 433.35. The Control_Avg_AUC [4] was 335.209 and the Control-MCC [5] was 78.6147.
In the case of `CC(C)(C)CC(C)(C)c1ccc(OCCOCC[N+](C)(C)Cc2ccccc2)cc1` [Benzethonium chloride], the “Area under the dose-response curve (AUC) MCC13 Replicate 1” value (MCC13 cells (VN-MCC)) is reported as 446.4, the “Area under the dose-response curve (AUC) MCC13 Replicate 2” value (MCC13 cells (VN-MCC)) is reported as 458.8 and the “Area under the dose-response curve (AUC) MCC13 Replicate 3” value (MCC13 cells (VN-MCC)) is reported as 480.2. For the same molecule, the MCC13_AUC (MCC13 cells (VN-MCC)) was 470.477, the “Area under the dose-response curve (AUC) MCC26 Replicate 1” value (MCC26 cells (VN-MCC)) was 408.1 and the “Area under the dose-response curve (AUC) MCC26 Replicate 2” value (MCC26 cells (VN-MCC)) was 395.1. The “Area under the dose-response curve (AUC) MCC26 Replicate 3” value (MCC26 cells (VN-MCC)) was 422.7, the MCC26_AUC (MCC26 cells (VN-MCC)) was 468.704 and the “Area under the dose-response curve (AUC) UISO Replicate 1” value (UISO cells (VN-MCC)) was 363.2. The “Area under the dose-response curve (AUC) UISO Replicate 2” value (UISO cells (VN-MCC)) was 392.4, the “Area under the dose-response curve (AUC) UISO Replicate 3” value (UISO cells (VN-MCC)) was 362.8 and the UISO_AUC (UISO cells (VN-MCC)) was 402.239. For the same molecule, the “Area under the dose-response curve (AUC) WAGA Replicate 1” value (WAGA cells (VP-MCC)) was 389.4, the “Area under the dose-response curve (AUC) WAGA Replicate 2” value (WAGA cells (VP-MCC)) was 374.6 and the “Area under the dose-response curve (AUC) WAGA Replicate 3” value (WAGA cells (VP-MCC)) was 382.0. The WAGA_AUC (WAGA cells (VP-MCC)) was 367.918, the “Area under the dose-response curve (AUC) MKL-1 Replicate 1” value (MKL-1 cells (VP-MCC)) was 338.0 and the “Area under the dose-response curve (AUC) MKL-1 Replicate 2” value (MKL-1 cells (VP-MCC)) was 346.5. For the same molecule, the “Area under the dose-response curve (AUC) MKL-1 Replicate 3” value (MKL-1 cells (VP-MCC)) was 373.3, the MKL1_AUC (MKL-1 cells (VP-MCC)) was 344.624 and the “Area under the dose-response curve (AUC) MKL-2 Replicate 1” value (MKL-2 cells (VP-MCC)) was 357.2. For the same molecule, the “Area under the dose-response curve (AUC) MKL-2 Replicate 2” value (MKL-2 cells (VP-MCC)) was 340.8, the “Area under the dose-response curve (AUC) MKL-2 Replicate 3” value (MKL-2 cells (VP-MCC)) was 365.0 and the MKL2_AUC (MKL-2 cells (VP-MCC)) was 335.827. For the same molecule, the HACAT_AUC (HACAT cells) was 436.332, the HEK293T_AUC (HEK293T cells) was 369.337 and the NIH3T3_AUC (NIH-3T3 cells) was 461.959. It also gave a CRL7250_AUC (CRL-7250 cells) of 423.584, an MCC_Avg_AUC [1] of 398.298 and a Control-VP-MCC [2] of 73.3469. For the same molecule, the VP-MCC_Avg_AUC [2] was 349.456, the Control-VN-MCC [3] was -24.3368 and the VN-MCC_Avg_AUC [3] was 447.14. For the same molecule, the Control_Avg_AUC [4] was 422.803 and the Control-MCC [5] was 24.505.
With `CC(=O)O[C@]1(C(C)=O)CC[C@H]2[C@@H]3C=C(C)C4=CC(=O)CC[C@]4(C)[C@H]3CC[C@@]21C` [Megestrol acetate] the MCC13_AUC (MCC13 cells (VN-MCC); [6]) was 479.341, the MCC13_AUC (MCC13 cells (VN-MCC); area under the dose-response curve, MCC13 cells, AUC<450 = reduced viability) was 479.661 and the “Area under the dose-response curve (AUC) MCC13 Replicate 1” value (MCC13 cells (VN-MCC); follow-up screen, MCC13, replicate 1) was 522.1. The “Area under the dose-response curve (AUC) MCC13 Replicate 2” value (MCC13 cells (VN-MCC); follow-up screen, MCC13, replicate 2) was 498.9, the “Area under the dose-response curve (AUC) MCC13 Replicate 3” value (MCC13 cells (VN-MCC); follow-up screen, MCC13, replicate 3) was 453.4 and the MCC26_AUC (MCC26 cells (VN-MCC); [6]) was 477.94. For the same molecule, the MCC26_AUC (MCC26 cells (VN-MCC); area under the dose-response curve, MCC26 cells, AUC<450 = reduced viability) was 486.411, the “Area under the dose-response curve (AUC) MCC26 Replicate 1” value (MCC26 cells (VN-MCC); follow-up screen, MCC26, replicate 1) was 464.5 and the “Area under the dose-response curve (AUC) MCC26 Replicate 2” value (MCC26 cells (VN-MCC); follow-up screen, MCC26, replicate 2) was 445.6. For the same molecule, the “Area under the dose-response curve (AUC) MCC26 Replicate 3” value (MCC26 cells (VN-MCC); follow-up screen, MCC26, replicate 3) was 484.7, the UISO_AUC (UISO cells (VN-MCC); [6]) was 463.276 and the UISO_AUC (UISO cells (VN-MCC); area under the dose-response curve, UISO cells, AUC<450 = reduced viability) was 481.624. For the same molecule, the “Area under the dose-response curve (AUC) UISO Replicate 1” value (UISO cells (VN-MCC); follow-up screen, UISO, replicate 1) was 487.9, the “Area under the dose-response curve (AUC) UISO Replicate 2” value (UISO cells (VN-MCC); follow-up screen, UISO, replicate 2) was 467.2 and the “Area under the dose-response curve (AUC) UISO Replicate 3” value (UISO cells (VN-MCC); follow-up screen, UISO, replicate 3) was 452.8. The WAGA_AUC (WAGA cells (VP-MCC); [6]) was 348.793, the WAGA_AUC (WAGA cells (VP-MCC); area under the dose-response curve, WAGA cells, AUC<450 = reduced viability) was 442.363 and the “Area under the dose-response curve (AUC) WAGA Replicate 1” value (WAGA cells (VP-MCC); follow-up screen, WAGA, replicate 1) was 536.2. For the same molecule, the “Area under the dose-response curve (AUC) WAGA Replicate 2” value (WAGA cells (VP-MCC); follow-up screen, WAGA, replicate 2) was 483.3, the “Area under the dose-response curve (AUC) WAGA Replicate 3” value (WAGA cells (VP-MCC); follow-up screen, WAGA, replicate 3) was 478.6 and the MKL1_AUC (MKL-1 cells (VP-MCC); [6]) was 380.312. For the same molecule, the MKL1_AUC (MKL-1 cells (VP-MCC); area under the dose-response curve, MKL-1 cells, AUC<450 = reduced viability) was 437.052, the “Area under the dose-response curve (AUC) MKL-1 Replicate 1” value (MKL-1 cells (VP-MCC); follow-up screen, MKL-1, replicate 1) was 482.4 and the “Area under the dose-response curve (AUC) MKL-1 Replicate 2” value (MKL-1 cells (VP-MCC); follow-up screen, MKL-1, replicate 2) was 475.6. For the same molecule, the “Area under the dose-response curve (AUC) MKL-1 Replicate 3” value (MKL-1 cells (VP-MCC); follow-up screen, MKL-1, replicate 3) was 473.0, the MKL2_AUC (MKL-2 cells (VP-MCC); [6]) was 396.638 and the MKL2_AUC (MKL-2 cells (VP-MCC); area under the dose-response curve, MKL-2 cells, AUC<450 = reduced viability) was 447.482. For the same molecule, the “Area under the dose-response curve (AUC) MKL-2 Replicate 1” value (MKL-2 cells (VP-MCC); follow-up screen, MKL-2, replicate 1) was 460.3, the “Area under the dose-response curve (AUC) MKL-2 Replicate 2” value (MKL-2 cells (VP-MCC); follow-up screen, MKL-2, replicate 2) was 492.7 and the “Area under the dose-response curve (AUC) MKL-2 Replicate 3” value (MKL-2 cells (VP-MCC); follow-up screen, MKL-2, replicate 3) was 490.0. For the same molecule, the HACAT_AUC (HACAT cells; [7]) was 434.851, the HACAT_AUC (HACAT cells; area under the dose-response curve, HACAT control cells, AUC<450 = reduced viability) was 455.962 and the HEK293T_AUC (HEK293T cells; [7]) was 472.9. The HEK293T_AUC (HEK293T cells; area under the dose-response curve, HEK293T control cells, AUC<450 = reduced viability) was 457.911, the NIH3T3_AUC (NIH-3T3 cells; [7]) was 472.047 and the NIH3T3_AUC (NIH-3T3 cells; area under the dose-response curve, NIH3T3 control cells, AUC<450 = reduced viability) was 478.678. It also gave a CRL7250_AUC (CRL-7250 cells; [7]) of 475.825, a CRL7250_AUC (CRL-7250 cells; area under the dose-response curve, CRL7250 control cells, AUC<450 = reduced viability) of 475.174 and an MCC_Avg_AUC ([1]; MIPE library, mean AUC of six MCC cell lines, sheet S2E) of 424.384. It also gave a Control-VP-MCC ([2]; MIPE library, Control AUC minus VP-MCC AUC (therapeutic window), sheet S2E) of 88.658, a VP-MCC_Avg_AUC ([2]; MIPE library, mean AUC of VP-MCC cell lines, sheet S2E) of 375.248 and a Control-VN-MCC ([3]; MIPE library, Control AUC minus VN-MCC AUC (therapeutic window), sheet S2E) of -9.613. The VN-MCC_Avg_AUC ([3]; MIPE library, mean AUC of VN-MCC cell lines, sheet S2E) was 473.519, the Control_Avg_AUC ([4]; MIPE library, mean AUC of control cell lines, sheet S2E) was 463.906 and the Control-MCC ([5]; MIPE library, Control AUC minus MCC AUC (therapeutic window), sheet S2E) was 39.5225.
